# Measured values reported in patent US20240270715A1, “INHIBITORS OF TRANSGLUTAMINASES” (ZEDIRA GMBH, priority 2021, published 2024).
# Experiments:
# [1] = Log D by shake flask method (octanol / PBS pH 7.4, HPLC); assay type: physicochemical; conditions: octanol / PBS pH 7.4, shake flask; read-out: logD
# Experimental: In order to classify the inventive compounds according to their lipophilicity, Log D values (distribution coefficient) were determined by means of the well-established shake flask method, measuring the partition of a compound between an octanol and phosphate-buffered saline (PBS, pH 7.4) by HPLC.
# Compounds with a moderate lipophilicity (Log D values from 0 to 3) are usually advantaged for oral absorption, being in balance between solubility and permeability. However, sophisticated formulation of a compound might improve oral bioavailability for highly lipophilic compounds.
# [2] = biological target: T1, recombinant human transglutaminase 2 (Homo sapiens, UniProt P21980); experiment: Transglutaminase assay: incorporation of dansylcadaverine into dimethylcasein (DCC-assay); assay type: biochemical; conditions: recombinant human TG2 10 nM, dansylcadaverine/dimethylcasein; read-out: IC50 TG2
# T1 sequence (P21980 1-687): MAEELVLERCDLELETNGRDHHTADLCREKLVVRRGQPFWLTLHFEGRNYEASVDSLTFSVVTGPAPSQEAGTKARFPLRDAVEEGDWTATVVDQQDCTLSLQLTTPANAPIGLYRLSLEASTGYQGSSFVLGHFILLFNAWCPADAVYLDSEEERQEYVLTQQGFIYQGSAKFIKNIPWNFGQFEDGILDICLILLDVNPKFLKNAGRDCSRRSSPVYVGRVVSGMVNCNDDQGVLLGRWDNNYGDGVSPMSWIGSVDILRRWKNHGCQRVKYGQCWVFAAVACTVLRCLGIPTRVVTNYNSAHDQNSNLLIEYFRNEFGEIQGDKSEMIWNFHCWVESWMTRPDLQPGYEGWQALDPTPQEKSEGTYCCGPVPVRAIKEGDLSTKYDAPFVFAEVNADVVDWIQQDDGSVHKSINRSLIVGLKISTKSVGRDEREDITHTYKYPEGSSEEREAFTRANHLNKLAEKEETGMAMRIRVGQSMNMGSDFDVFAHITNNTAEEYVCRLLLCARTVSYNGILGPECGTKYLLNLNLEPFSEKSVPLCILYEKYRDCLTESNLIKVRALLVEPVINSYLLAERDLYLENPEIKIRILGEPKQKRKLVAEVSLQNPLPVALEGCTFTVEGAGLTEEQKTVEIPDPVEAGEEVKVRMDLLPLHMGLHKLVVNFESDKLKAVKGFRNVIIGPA
# Experimental: To illustrate the advantage of branched alkyl moieties over aromatic moieties, we refer to reference compounds Ref. 2 (ZED1227, U.S. Pat. No. 9,434,763 B2) and Ref. 3 (A8, ZED1047). Inhibition data were determined using the classical fluorescent transamidation assay (dansylcadaverine incorporation into methylated casein, DCC-assay) as described [Büchold, C.; Hils, M.; Gerlach, U.; Weber, J.; Pelzer, C.; Heil, A.; Aeschlimann, D.; Pasternack, R. Features of ZED1227: The First-In-Class Tissue Transglutaminase Inhibitor Undergoing Clinical Evaluation for the Treatment of Celiac Disease. Cells 2022, 11, 1667. https://doi.org/10.3390/cells11101667]. Casein is one of the best known high molecular weight (24 kDa) protein substrates for transglutaminases. Please note, the IC50 value of Ref. 3 (A8) published in U.S. Pat. No. 9,434,763 B2 cannot be compared to the present data, relying on a fluorogenic isopeptidase assay.
# To this extent, inhibition data were determined using the classical fluorescent transamidation assay (dansylcadaverine incorporation into methylated casein, DCC-assay) as described in Büchold et al. [Büchold, C.; Hils, M.; Gerlach, U.; Weber, J.; Pelzer, C.; Heil, A.; Aeschlimann, D.; Pasternack, R. Features of ZED1227: The First-In-Class Tissue Transglutaminase Inhibitor Undergoing Clinical Evaluation for the Treatment of Celiac Disease. Cells 2022, 11, 1667. https://doi.org/10.3390/cells11101667]. Casein is one of the best known high molecular weight (24 kDa) protein substrates for transglutaminases. Inhibition data of the inventive compounds was compared with inhibition of compounds disclosed in U.S. Pat. No. 9,434,763 B2, particularly, compound A8, which is denoted herein as Reference 3. It is noteworthy that the IC50 values of compounds A8 published in U.S. Pat. No. 9,434,763 B2 and E16 from U.S. Pat. No. 11,072,634 B2 cannot be compared to the present data, relying on a fluorogenic isopeptidase assay.
# For the determination of potency of inhibitors against tissue transglutaminase, the incorporation of dansylcadaverine into dimethylcasein (Zedira product T036, Lorand et al., Anal Biochem, 1971, 44:221-31) was measured using recombinant human transglutaminase 2 (Zedira Product T022).
# The tissue transglutaminase is diluted in buffer (50 mM Tris-HCl, 7.5 mM CaCl2, 150 mM NaCl, pH=7.4). The final concentration of TG2 in the assay is 10 nM.
# A 10 mM inhibitor stock solution is prepared in DMSO, and from this a serial 1:2-fold dilution series is prepared also in DMSO. Each of the initial dilutions is subsequently diluted 1:50-fold with buffer (50 mM Tris-HCl, 7.5 mM CaCl2, 150 mM NaCl, pH=7.4) to yield the final working dilutions containing 2% (v/v) DMSO. 15 μl of inhibitor working dilution are added per well of a 96 well microtiter plate. As control, 15 μl of a 2% (v/v) DMSO solution prepared using the buffer mentioned above are added per well.
# Immediately before starting the assay, 600 μl transglutaminase working solution are added to 11.4 ml assay buffer (50 mM Tris-HCl, 10 mM CaCl2, 10 mM glutathione, 2.5% glycerol, 16.7 μM dansylcadaverine, 4 μM N,N-dimethylcasein, 200 mM NaCl, pH=8.0). 285 μl of this reaction mix are added per well containing the inhibitor.
# Increase in fluorescence is measured using λex=330 nm and λemG=500 nm at […] for 30 min. A slope of the increase in fluorescence between 20 and 30 min is calculated for determination of the IC50 value (inhibitor concentration at which 50% of the initial activity is blocked).
# Analysis of enzymatic activity is performed by calculation of the slope of an increase in fluorescence intensity. IC50 values are calculated by plotting the enzymatic activity (as percentage from control containing 2% DMSO instead of inhibitor) against the inhibitor concentration. IC50 is defined as the inhibitor concentration blocking 50% of initial enzyme activity.
# [3] = Caco-2 permeability assay (CacoReady kit); assay type: in vitro ADME; conditions: human
# Experimental: Permeability coefficients (Papp values) were obtained from Caco-2 barrier studies predicting oral/intestinal bioavailability of the tested compounds. The assays were performed by using CacoReady™ ready-to-use kits from ReadyCell according to the manufacturers protocol.
logD [1],IC50 [2] [nM],Papp [3] [×10⁻⁶ cm/s],Compound
< 1,150 to 600,1 to 10,"CCNC(=O)C(=O)CC[C@H](NC(=O)c1c(C)noc1C)C(=O)Nc1cccn(CC(=O)NC2C3CCCC2CC3)c1=O (stereo partly drawn) [Compound I-91, (2S)-N1-(1-(2-(bicyclo[3.2.1]octan-8-ylamino)-2-oxoethyl)-2-oxo-1,2-dihydropyridin-3-yl)-2-(3,5-dimethylisoxazole-4-carboxamido)-N6-ethyl-5-oxohexanediamide]"
< 1,600 to 3500,< 1,"CCNC(=O)C(=O)CC[C@H](NC(=O)c1nccc2cnccc12)C(=O)Nc1cccn(CC(=O)NC23CCC(C2)C3)c1=O [Compound I-107, (S)-N1-(1-(2-(bicyclo[2.1.1]hexan-1-ylamino)-2-oxoethyl)-2-oxo-1,2-dihydropyridin-3-yl)-N6-ethyl-2-(2,6-naphthyridine-1-carboxamido)-5-oxohexanediamide]"
1 to 3,600 to 3500,< 1,"CCNC(=O)C(=O)CC[C@H](NC(=O)[C@@H]1CN2CCN1CC2)C(=O)Nc1cccn(CC(=O)NC2C3CC4CC(C3)CC2C4)c1=O (stereo partly drawn) [Compound I-94, (S)-2-((S)-1,4-diazabicyclo[2.2.2]octane-2-carboxamido)-N6-ethyl-N1-(1-(2-(2-adamantylamino)-2-oxoethyl)-2-oxo-1,2-dihydropyridin-3-yl)-5-oxohexanediamide]"
< 1,150 to 600,< 1,"CCNC(=O)C(=O)CC[C@H](NC(=O)c1ncns1)C(=O)Nc1cccn(CC(=O)NC23CC(C2)C3)c1=O [Compound I-118, (S)-N1-(1-(2-(bicyclo[1.1.1]pentan-1-ylamino)-2-oxoethyl)-2-oxo-1,2-dihydropyridin-3-yl)-N6-ethyl-5-oxo-2-(1,2,4-thiadiazole-5-carboxamido)hexanediamide]"

# Continued, compound first:
Compound,logD [1],IC50 [2] [nM],Papp [3] [×10⁻⁶ cm/s]
"CCNC(=O)C(=O)CC[C@H](NC(=O)c1cncn1C)C(=O)Nc1cccn(CC(=O)NC23CC4CC(CC(C4)C2)C3)c1=O [Compound I-1, (S)-N1-ethyl-N6-(1-(2-(1-adamantylamino)-2-oxoethyl)-2-oxo-1,2-dihydropyridin-3-yl)-5-(1-methyl-1H-imidazole-5-carboxamido)-2-oxohexanediamide]",< 1,600 to 3500,< 1
"CCNC(=O)C(=O)CC[C@H](NC(=O)c1cc2c(Br)cccc2o1)C(=O)Nc1cccn(CC(=O)NC2C3CC4CC(C3)CC2C4)c1=O (stereo partly drawn) [Compound I-33, (S)-2-(4-bromobenzofuran-2-carboxamido)-N6-ethyl-N1-(1-(2-(2-adamantylamino)-2-oxoethyl)-2-oxo-1,2-dihydropyridin-3-yl)-5-oxohexanediamide]",3 to 5,< 150,1 to 10
"CCNC(=O)C(=O)CC[C@H](NC(=O)c1ccnn1C)C(=O)Nc1cccn(CC23CC4CC(CC(C4)C2)C3)c1=O [Compound I-81, (S)-N1-(1-(1-adamantylmethyl)-2-oxo-1,2-dihydropyridin-3-yl)-N6-ethyl-2-(1-methyl-1H-pyrazole-5-carboxamido)-5-oxohexanediamide]",1 to 3,150 to 600,< 1
"CCNC(=O)C(=O)CC[C@H](NC(=O)c1sc(Br)cc1C)C(=O)Nc1cccn(CC(=O)NC2C3CC4CC(C3)CC2C4)c1=O (stereo partly drawn) [Compound I-43, (S)-2-(5-bromo-3-methylthiophene-2-carboxamido)-N6-ethyl-N1-(1-(2-(2-adamantylamino)-2-oxoethyl)-2-oxo-1,2-dihydropyridin-3-yl)-5-oxohexanediamide]",3 to 5,< 150,1 to 10
"CCNC(=O)C(=O)CC[C@H](NC(=O)c1ccncc1)C(=O)Nc1cccn(CC(=O)NC23CCC(CC2)C3)c1=O [Compound I-71, (S)-N1-(1-(2-((1s,4R)-bicyclo[2.2.1]heptan-1-ylamino)-2-oxoethyl)-2-oxo-1,2-dihydropyridin-3-yl)-N6-ethyl-2-(isonicotinamido)-5-oxohexanediamide]",< 1,150 to 600,< 1
"CCNC(=O)C(=O)CC[C@H](NC(=O)c1oc2ccccc2c1C)C(=O)Nc1cccn(CC(=O)NC2C3CC4CC(C3)CC2C4)c1=O (stereo partly drawn) [Compound I-31, (S)-N1-ethyl-N6-(1-(2-(2-adamantylamino)-2-oxoethyl)-2-oxo-1,2-dihydropyridin-3-yl)-5-(3-methylbenzofuran-2-carboxamido)-2-oxohexanediamide]",3 to 5,< 150,1 to 10
"CCNC(=O)C(=O)CC[C@H](NC(=O)c1ccnnc1)C(=O)Nc1cccn(CC(=O)NC2C3CCC2CC3)c1=O (stereo partly drawn) [Compound I-72, (S)-N1-(1-(2-(bicyclo[2.2.1]heptan-7-ylamino)-2-oxoethyl)-2-oxo-1,2-dihydropyridin-3-yl)-N6-ethyl-5-oxo-2-(pyridazine-4-carboxamido)hexanediamide]",< 1,150 to 600,< 1
"CCNC(=O)C(=O)CC[C@H](NC(=O)c1c[nH]cn1)C(=O)Nc1cccn(CC(=O)NC23CC4CC(CC(C4)C2)C3)c1=O [Compound I-2, (S)-N1-ethyl-5-(1H-imidazole-4-carboxamido)-N6-(1-(2-(1-adamantylamino)-2-oxoethyl)-2-oxo-1,2-dihydropyridin-3-yl)-2-oxohexanediamide]",< 1,600 to 3500,< 1
"CCNC(=O)C(=O)CC[C@H](NC(=O)c1snnc1C1CC1)C(=O)Nc1cccn(CC23CC4CC(CC(O)(C4)C2)C3)c1=O [Compound I-82, (S)-N1-(1-((3-hydroxy-1-adamantyl)methyl)-2-oxo-1,2-dihydropyridin-3-yl)-2-(4-cyclopropyl-1,2,3-thiadiazole-5-carboxamido)-N6-ethyl-5-oxohexanediamide]",< 1,150 to 600,< 1
